Read-outs that look alike come from different tables or passages of the source.
Biological target: T1, urokinase enzyme Abbokinase (Homo sapiens, UniProt P00749)
T1 construct: purchased Abbott Laboratories, Abbott Park, IL
Test: Inhibition of urokinase on chromogenic substrate S-2444
Assay type: biochemical
Protocol: Four concentrations were chosen, then 5 µl of each were diluted to a total assay volume of 200 µL. […] Several vials were reconstituted as directed on the vial, aliquoted, and stored frozen The enzyme was further diluted in assay buffer and 10 µL was used in the assay. Enzyme concentration in the assay was 2-3 nM. The assay was performed as follows: 175 µL of buffer was pipetted inta the polystyrene plate, and 5 µL solution of a compound of this invention in DMSO was added. The mixture was vortexed, treated with 10 µL of enzyme in buffer, vortexed, treated with 10 µL of substrate in water, and vortexed. […] The Spectromax® calculated the reaction rates which were used to calculate percent inhibition of the compounds of this invention versus the reaction rate of the enzyme in the absence of any inhibitor. The Ki's of the inhibitors were calculated from the percent inhibition and previously established Km.

Row | Ki (read-out: Ki) | Compound | Ki
1 | 41 nM | CC(C)C1=NCCc2ccc(C3CC3c3cc(-c4ccoc4)c4cc(C(=N)N)ccc4c3)cc21 (centres unmarked) [Example 1, 8-(3-furyl)-6-(2-(1-isopropyl-3,4-dihydro-7-isoquinolinyl)cyclopropyl)-2-naphthalenecarboximidamide] | –
2 | 480 nM | CC(C)c1nccc2ccc(C3CC3c3ccc4cc(C(=N)N)ccc4c3)cc12 (centres unmarked) [Example 2, 6-(2-(1-isopropyl-7-isoquinolinyl)cyclopropyl)-2-naphthalenecarboximidamide] | –
3 | 25 nM | CC(C)C1c2cc(C3CC3c3cc(-c4ccoc4)c4cc(C(=N)N)ccc4c3)ccc2CCN1C (centres unmarked) [Example 3, 8-(3-furyl)-6-(2-(1-isopropyl-2-methyl-1,2,3,4-tetrahydro-7-isoquinolinyl)cyclopropyl)-2-naphthalenecarboximidamide] | –
4 | 59 nM | COCC=Cc1cc(C2CC2c2ccc3c(c2)C(C(C)C)=NCC3)cc2ccc(C(=N)N)cc12 (centres unmarked) [Example 4, 6-(2-(1-isopropyl-3,4-dihydro-7-isoquinolinyl)cyclopropyl)-8-(3-methoxy-1-propenyl)-2-naphthalenecarboximidamide] | –
5 | – | COC/C=C/c1cc(C2CC2c2ccc3c(c2)C(C(C)C)N(C)CC3)cc2ccc(C(=N)N)cc12 (centres unmarked) [Example 5, 6-(2-(1-isopropyl-2-methyl-1,2,3,4-tetrahydro-7-isoquinolinyl)cyclopropyl)-8-((1E)-3-methoxy-1-propenyl)-2-naphthalenecarboximidamide] | 21 nM
6 | 45 nM | CC(C)C1=NCCc2ccc(C3CC3c3cc(C4CCOC4)c4cc(C(=N)N)ccc4c3)cc21 (centres unmarked) [Example 7, 6-(2-(1-isopropyl-3,4-dihydro-7-isoquinolinyl)cyclopropyl)-8-tetrahydro-3-furanyl-2-naphthalenecarboximidamide] | –
7 | 21 nM | CC(C)/C=C/c1cc(C2CC2c2ccc3c(c2)C(C(C)C)=NCC3)cc2ccc(C(=N)N)cc12 (centres unmarked) [Example 8, 6-(2-(1-isopropyl-3,4-dihydro-7-isoquinolinyl)cyclopropyl)-8-((1E)-3-methyl-1-butenyl)-2-naphthalenecarboximidamide] | –
8 | 50 nM | N=C(N)c1ccc2cc(C3CC3c3ccc4c(c3)C(C3CCCCC3)=NCC4)ccc2c1 (centres unmarked) [Example 9, 6-(2-(1-cyclohexyl-3,4-dihydro-7-isoquinolinyl)cyclopropyl)-2-naphthalenecarboximidamide] | –
9 | 142 nM | N=C(N)c1ccc2cc(C3CC3c3ccc4c(c3)C(c3ccccc3)=NCC4)ccc2c1 (centres unmarked) [Example 10, 6-(2-(1-phenyl-3,4-dihydro-7-isoquinolinyl)cyclopropyl)-2-naphthalenecarboximidamide] | –
10 | 128 nM | CCCC1c2cc(C3CC3c3ccc4cc(C(=N)N)ccc4c3)ccc2CCN1C (centres unmarked) [Example 11, 6-(2-(2-methyl-1-propyl-1,2,3,4-tetrahydro-7-isoquinolinyl)cyclopropyl)-2-naphthalenecarboximidamide] | –
11 | 260 nM | CC(C)C1NCCc2ccc(C=Cc3ccc4cc(C(=N)N)ccc4c3)cc21 (centres unmarked) [Example 13, 6-(2-(1-isopropyl-1,2,3,4-tetrahydro-7-isoquinolinyl)ethenyl)-2-naphthalenecarboximidamide] | –
12 | 160 nM | CC(=O)N1CCc2ccc(C3CC3c3ccc4cc(C(=N)N)ccc4c3)cc2C1C(C)C (centres unmarked) [Example 15, 6-(2-(2-acetyl-1-isopropyl-1,2,3,4-tetrahydro-7-isoquinolinyl)cyclopropyl)-2-naphthalenecarboximidamide] | –
13 | 120 nM | CC(C)C1c2cc(C=Cc3ccc4cc(C(=N)N)ccc4c3)ccc2CCN1C (centres unmarked) [Example 16, 6-(2-(1-isopropyl-2-methyl-1,2,3,4-tetrahydro-7-isoquinolinyl)ethenyl)-2-naphthalenecarboximidamide] | –
14 | 250 nM | COC(=O)N1CCc2ccc(C=Cc3ccc4cc(C(=N)N)ccc4c3)cc2C1C(C)C (centres unmarked) [Example 17, methyl 7-(2-(6-(amino(imino)methyl)-2-naphthyl)ethenyl)-1-isopropyl-3,4-dihydro-2(1H)-isoquinolinecarboxylate] | –

Source: patent EP1276722B1, “NAPHTHAMIDINE UROKINASE INHIBITORS” (ABBOTT LABORATORIES, priority 2000, dated 2001)
